# Experimental data: ChEMBL document CHEMBL3991601, “The target landscape of clinical kinase drugs” (Science, 2017)
# The source made the active and inactive calls.
# How the values were obtained:
# Wee1-like protein kinase = Wee1-like protein kinase (Homo sapiens, UniProt P30291)
# Adenosine kinase = Adenosine kinase (Homo sapiens, UniProt P55263)
# [1] = molecular target: T1, ATP-dependent RNA helicase DDX42 (Homo sapiens, UniProt Q86XP3)
# T1 sequence (Q86XP3 whole entry): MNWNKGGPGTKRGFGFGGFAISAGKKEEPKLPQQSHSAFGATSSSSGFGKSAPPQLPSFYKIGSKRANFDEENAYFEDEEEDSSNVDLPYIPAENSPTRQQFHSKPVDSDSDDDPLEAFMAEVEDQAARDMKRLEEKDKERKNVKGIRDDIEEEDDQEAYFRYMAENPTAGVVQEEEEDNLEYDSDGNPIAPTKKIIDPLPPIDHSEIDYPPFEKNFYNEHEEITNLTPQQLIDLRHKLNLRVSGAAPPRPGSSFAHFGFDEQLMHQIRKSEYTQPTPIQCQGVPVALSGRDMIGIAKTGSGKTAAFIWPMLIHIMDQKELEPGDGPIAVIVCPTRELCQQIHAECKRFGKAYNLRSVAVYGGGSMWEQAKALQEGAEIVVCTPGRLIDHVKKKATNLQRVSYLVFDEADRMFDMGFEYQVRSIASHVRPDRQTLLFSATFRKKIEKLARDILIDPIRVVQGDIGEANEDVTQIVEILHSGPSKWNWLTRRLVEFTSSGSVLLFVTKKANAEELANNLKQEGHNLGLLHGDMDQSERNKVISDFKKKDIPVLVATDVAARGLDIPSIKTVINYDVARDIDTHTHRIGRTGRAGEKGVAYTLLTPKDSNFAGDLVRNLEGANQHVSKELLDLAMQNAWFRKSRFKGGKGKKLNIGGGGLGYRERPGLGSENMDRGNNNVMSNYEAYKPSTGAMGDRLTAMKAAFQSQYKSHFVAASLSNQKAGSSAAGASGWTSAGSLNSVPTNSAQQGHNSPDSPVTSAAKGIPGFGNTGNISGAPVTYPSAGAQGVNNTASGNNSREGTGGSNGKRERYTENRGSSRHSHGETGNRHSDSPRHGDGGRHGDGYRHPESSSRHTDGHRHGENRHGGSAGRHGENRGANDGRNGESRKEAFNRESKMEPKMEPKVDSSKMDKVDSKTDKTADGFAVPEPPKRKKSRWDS
# Myosin-14 = Myosin-14 (Homo sapiens, UniProt Q7Z406)
# ADP/ATP translocase 3 = molecular target: T2, ADP/ATP translocase 3 (Homo sapiens, UniProt P12236)
# T2 sequence (P12236 whole entry): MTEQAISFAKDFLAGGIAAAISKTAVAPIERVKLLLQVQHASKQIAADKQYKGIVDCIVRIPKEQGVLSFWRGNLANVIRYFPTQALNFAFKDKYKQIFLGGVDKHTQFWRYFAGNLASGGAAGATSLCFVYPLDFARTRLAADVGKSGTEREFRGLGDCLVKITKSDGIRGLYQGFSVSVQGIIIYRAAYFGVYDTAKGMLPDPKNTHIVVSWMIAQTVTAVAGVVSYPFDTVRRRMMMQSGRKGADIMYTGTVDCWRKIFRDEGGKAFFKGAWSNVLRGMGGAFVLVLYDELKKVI
# Pyridoxal kinase = molecular target: T3, Pyridoxal kinase (Homo sapiens, UniProt O00764)
# T3 sequence (O00764 whole entry): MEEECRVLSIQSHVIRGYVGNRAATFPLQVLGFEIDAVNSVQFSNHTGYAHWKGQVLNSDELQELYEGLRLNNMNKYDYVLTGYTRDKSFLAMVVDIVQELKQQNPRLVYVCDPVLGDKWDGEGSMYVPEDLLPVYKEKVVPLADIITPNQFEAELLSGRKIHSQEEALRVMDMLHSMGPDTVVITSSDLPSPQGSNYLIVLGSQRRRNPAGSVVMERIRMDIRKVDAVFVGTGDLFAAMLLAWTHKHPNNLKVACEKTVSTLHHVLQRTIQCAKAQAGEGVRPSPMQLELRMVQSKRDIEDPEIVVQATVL
# [2] = molecular target: T4, Ras-related protein Rab-10 (Homo sapiens, UniProt P61026)
# T4 sequence (P61026 whole entry): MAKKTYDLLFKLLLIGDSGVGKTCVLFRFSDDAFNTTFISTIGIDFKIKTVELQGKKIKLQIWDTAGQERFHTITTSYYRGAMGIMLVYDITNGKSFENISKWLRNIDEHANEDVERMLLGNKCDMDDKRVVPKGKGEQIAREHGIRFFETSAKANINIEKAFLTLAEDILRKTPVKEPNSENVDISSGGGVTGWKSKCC
# [3] = molecular target: Adenylate kinase 2, mitochondrial (Homo sapiens, UniProt P54819)
# [4] = molecular target: DNA topoisomerase 2-alpha (Homo sapiens, UniProt P11388)
# [5] = molecular target: Ras-related protein Rab-6A (Homo sapiens, UniProt P20340)
# [6] = molecular target: T5, Serine/threonine-protein kinase TBK1 (Homo sapiens, UniProt Q9UHD2)
# T5 sequence (Q9UHD2 whole entry): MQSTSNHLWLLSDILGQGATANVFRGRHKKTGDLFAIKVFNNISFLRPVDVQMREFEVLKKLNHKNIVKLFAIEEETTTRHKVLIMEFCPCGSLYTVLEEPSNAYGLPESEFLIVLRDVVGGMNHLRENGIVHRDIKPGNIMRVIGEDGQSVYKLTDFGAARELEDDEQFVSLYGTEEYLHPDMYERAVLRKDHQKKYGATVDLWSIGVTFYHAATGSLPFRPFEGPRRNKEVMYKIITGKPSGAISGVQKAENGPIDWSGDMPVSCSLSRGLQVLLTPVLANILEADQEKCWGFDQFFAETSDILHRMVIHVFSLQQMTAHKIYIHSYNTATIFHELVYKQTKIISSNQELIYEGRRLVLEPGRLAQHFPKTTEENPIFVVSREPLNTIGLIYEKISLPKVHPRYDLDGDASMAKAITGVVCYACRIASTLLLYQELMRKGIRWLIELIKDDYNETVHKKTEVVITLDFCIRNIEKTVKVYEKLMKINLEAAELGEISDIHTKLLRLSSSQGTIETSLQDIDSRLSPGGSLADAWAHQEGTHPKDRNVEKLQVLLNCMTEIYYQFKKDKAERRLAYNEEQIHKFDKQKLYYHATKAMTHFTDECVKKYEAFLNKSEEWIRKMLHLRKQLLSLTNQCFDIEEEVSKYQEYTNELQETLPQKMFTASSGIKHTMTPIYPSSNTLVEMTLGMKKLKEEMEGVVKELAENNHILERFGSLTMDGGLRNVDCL
# [7] = molecular target: Ribosomal protein S6 kinase alpha-3 (Homo sapiens, UniProt P51812)
# Note: in the data inactive means no Kd found up to 30 µM.
# Chain of Ras-related protein Rab-6A (P20340 whole entry): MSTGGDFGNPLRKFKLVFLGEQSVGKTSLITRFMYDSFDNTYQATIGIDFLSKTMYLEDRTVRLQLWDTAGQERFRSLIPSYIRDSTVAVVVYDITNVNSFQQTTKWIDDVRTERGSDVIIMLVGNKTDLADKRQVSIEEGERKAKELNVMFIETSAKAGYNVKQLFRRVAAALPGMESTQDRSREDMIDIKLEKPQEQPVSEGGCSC
# Chain of Adenosine kinase (P55263 whole entry): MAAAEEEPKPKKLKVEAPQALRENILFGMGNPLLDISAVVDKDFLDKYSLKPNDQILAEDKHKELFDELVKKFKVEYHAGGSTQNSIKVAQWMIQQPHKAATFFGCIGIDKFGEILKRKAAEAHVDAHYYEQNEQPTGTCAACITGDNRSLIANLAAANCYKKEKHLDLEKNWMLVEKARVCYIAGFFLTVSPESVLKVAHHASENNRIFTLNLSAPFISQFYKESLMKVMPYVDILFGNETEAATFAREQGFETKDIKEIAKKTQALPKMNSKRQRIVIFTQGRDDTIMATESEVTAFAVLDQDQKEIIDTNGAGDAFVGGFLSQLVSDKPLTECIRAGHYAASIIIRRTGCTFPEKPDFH
# Chain of Wee1-like protein kinase (P30291 whole entry): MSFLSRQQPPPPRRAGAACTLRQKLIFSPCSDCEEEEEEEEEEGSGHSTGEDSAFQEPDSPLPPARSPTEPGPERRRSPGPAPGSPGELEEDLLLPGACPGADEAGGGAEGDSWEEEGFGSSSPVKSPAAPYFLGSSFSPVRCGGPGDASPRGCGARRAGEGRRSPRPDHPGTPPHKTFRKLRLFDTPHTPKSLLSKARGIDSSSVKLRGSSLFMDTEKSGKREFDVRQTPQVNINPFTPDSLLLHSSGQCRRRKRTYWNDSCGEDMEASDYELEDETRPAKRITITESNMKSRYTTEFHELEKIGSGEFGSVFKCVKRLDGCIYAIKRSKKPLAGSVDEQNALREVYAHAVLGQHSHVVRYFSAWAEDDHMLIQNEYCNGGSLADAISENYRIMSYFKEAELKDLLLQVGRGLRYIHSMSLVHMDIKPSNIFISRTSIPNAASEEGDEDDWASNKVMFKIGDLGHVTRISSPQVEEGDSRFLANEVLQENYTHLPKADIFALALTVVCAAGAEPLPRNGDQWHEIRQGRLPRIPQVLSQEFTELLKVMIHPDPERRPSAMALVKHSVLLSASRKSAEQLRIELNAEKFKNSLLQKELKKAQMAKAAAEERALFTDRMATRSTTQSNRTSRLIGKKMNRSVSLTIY
# Chain of Ribosomal protein S6 kinase alpha-3 (P51812 whole entry): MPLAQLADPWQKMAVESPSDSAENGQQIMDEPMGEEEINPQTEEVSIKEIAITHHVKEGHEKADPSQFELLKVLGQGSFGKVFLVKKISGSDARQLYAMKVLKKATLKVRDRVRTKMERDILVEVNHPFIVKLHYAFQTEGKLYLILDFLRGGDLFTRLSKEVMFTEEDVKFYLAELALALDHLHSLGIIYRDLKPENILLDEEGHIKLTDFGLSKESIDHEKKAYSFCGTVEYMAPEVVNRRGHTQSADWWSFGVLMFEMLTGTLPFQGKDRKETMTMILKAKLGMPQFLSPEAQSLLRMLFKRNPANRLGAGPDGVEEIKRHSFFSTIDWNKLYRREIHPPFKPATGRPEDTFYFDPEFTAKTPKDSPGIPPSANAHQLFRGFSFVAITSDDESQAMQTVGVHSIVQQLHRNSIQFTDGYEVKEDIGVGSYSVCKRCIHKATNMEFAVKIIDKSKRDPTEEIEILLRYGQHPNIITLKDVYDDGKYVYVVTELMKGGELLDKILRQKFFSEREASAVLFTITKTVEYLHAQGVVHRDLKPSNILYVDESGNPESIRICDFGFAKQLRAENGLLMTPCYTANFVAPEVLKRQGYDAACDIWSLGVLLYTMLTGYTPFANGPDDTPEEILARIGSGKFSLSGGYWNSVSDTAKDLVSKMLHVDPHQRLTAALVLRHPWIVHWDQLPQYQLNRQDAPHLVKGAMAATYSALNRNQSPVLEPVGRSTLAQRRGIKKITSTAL
# Chain of Myosin-14 (Q7Z406 whole entry): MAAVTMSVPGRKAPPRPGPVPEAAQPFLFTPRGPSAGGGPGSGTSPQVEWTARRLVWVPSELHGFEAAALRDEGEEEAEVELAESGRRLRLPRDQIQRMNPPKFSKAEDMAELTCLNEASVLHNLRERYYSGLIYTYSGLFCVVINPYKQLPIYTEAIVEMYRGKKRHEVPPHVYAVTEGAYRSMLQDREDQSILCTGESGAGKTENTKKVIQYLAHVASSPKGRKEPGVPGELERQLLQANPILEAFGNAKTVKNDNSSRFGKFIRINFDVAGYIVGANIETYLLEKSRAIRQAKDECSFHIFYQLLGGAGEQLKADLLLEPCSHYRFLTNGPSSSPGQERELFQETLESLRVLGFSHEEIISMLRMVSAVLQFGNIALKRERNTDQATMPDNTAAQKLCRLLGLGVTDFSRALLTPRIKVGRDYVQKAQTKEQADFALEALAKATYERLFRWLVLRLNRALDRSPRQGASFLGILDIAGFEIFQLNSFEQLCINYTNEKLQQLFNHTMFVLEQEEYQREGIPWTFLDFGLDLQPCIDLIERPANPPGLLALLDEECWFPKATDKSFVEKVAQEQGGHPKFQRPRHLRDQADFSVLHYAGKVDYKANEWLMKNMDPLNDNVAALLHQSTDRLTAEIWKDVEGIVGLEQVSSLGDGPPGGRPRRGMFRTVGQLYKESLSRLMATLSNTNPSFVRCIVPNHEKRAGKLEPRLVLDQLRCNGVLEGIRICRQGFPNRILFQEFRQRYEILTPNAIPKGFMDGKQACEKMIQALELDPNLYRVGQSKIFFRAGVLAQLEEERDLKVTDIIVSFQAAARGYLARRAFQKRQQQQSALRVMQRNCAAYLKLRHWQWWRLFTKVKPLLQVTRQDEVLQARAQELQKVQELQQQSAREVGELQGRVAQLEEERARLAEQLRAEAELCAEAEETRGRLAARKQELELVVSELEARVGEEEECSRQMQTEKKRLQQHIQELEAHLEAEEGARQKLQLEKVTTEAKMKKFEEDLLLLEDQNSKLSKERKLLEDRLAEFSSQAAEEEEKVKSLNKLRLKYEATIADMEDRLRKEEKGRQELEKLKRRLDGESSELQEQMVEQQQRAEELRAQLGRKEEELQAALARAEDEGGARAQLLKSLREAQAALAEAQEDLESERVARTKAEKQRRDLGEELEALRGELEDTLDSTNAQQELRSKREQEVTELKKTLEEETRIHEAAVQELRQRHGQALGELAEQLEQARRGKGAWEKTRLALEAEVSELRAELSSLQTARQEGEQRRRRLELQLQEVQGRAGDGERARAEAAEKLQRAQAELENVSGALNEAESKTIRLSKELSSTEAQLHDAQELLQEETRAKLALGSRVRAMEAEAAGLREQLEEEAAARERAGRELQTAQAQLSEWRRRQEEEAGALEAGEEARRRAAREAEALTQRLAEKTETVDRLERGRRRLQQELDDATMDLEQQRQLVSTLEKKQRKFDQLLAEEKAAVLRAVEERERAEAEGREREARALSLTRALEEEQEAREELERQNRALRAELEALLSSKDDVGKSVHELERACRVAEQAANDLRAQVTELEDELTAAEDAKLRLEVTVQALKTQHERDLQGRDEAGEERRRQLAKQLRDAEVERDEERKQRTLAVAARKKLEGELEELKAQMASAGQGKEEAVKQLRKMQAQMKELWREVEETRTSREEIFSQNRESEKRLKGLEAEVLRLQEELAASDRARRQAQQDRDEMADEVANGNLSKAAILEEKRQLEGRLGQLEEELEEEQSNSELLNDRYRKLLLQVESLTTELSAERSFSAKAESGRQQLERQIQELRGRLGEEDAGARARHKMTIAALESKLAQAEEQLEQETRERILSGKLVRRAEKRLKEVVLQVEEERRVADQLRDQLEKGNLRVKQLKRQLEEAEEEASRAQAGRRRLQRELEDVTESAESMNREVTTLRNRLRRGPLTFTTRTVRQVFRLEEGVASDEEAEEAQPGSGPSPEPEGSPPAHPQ
Compound,Kd (Wee1-like protein kinase),Kd (Adenosine kinase),Kd [1],Kd (Myosin-14),Kd (ADP/ATP translocase 3),Kd (Pyridoxal kinase),Kd [2],Kd [3],Kd [4],Kd [5],Kd [6],Kd [7]
CCc1cnn2c(NCc3ccc[n+]([O-])c3)cc(N3CCCC[C@H]3CCO)nc12 [DINACICLIB],> 30 µM (inactive),> 30 µM (inactive),> 30 µM (inactive),> 30 µM (inactive),> 30 µM (inactive),> 30 µM (inactive),> 30 µM (inactive),> 30 µM (inactive),> 30 µM (inactive),> 30 µM (inactive),–,–
OCCn1cc(-c2cnc3nnn(Cc4ccc5ncccc5c4)c3n2)cn1 [PF-04217903],> 30 µM (inactive),> 30 µM (inactive),> 30 µM (inactive),> 30 µM (inactive),> 30 µM (inactive),> 30 µM (inactive),> 30 µM (inactive),> 30 µM (inactive),> 30 µM (inactive),> 30 µM (inactive),–,–
Cc1cc(Nc2cc(N3CCN(C)CC3)nc(/C=C/c3ccccc3)n2)n[nH]1 [ENMD-2076],> 30 µM (inactive),> 30 µM (inactive),> 30 µM (inactive),> 30 µM (inactive),> 30 µM (inactive),> 30 µM (inactive),> 30 µM (inactive),> 30 µM (inactive),> 30 µM (inactive),> 30 µM (inactive),–,–
CNC(=O)CN1CCC(Oc2cc3c(Nc4cccc(Cl)c4F)ncnc3cc2OC)CC1 [SAPITINIB],> 30 µM (inactive),1.4 µM,> 30 µM (inactive),> 30 µM (inactive),> 30 µM (inactive),> 30 µM (inactive),> 30 µM (inactive),> 30 µM (inactive),–,> 30 µM (inactive),> 30 µM (inactive),> 30 µM (inactive)
CNC(=O)c1ccc(C)c(-n2c(C)cc(OCc3ccc(F)cc3F)c(Br)c2=O)c1 [PH-797804],> 30 µM (inactive),> 30 µM (inactive),> 30 µM (inactive),> 30 µM (inactive),> 30 µM (inactive),> 30 µM (inactive),> 30 µM (inactive),> 30 µM (inactive),–,> 30 µM (inactive),> 30 µM (inactive),> 30 µM (inactive)
CCn1c(-c2nonc2N)nc2c(C#CC(C)(C)O)ncc(OC[C@H]3CCCNC3)c21 [GSK-690693],–,> 30 µM (inactive),> 30 µM (inactive),> 30 µM (inactive),> 30 µM (inactive),> 30 µM (inactive),> 30 µM (inactive),> 30 µM (inactive),> 30 µM (inactive),> 30 µM (inactive),–,–
C1=C/COCc2cc(ccc2OCCN2CCCC2)Nc2nccc(n2)-c2cccc(c2)COC/1 [PACRITINIB],> 30 µM (inactive),> 30 µM (inactive),> 30 µM (inactive),> 30 µM (inactive),> 30 µM (inactive),> 30 µM (inactive),> 30 µM (inactive),> 30 µM (inactive),–,> 30 µM (inactive),49.6 µM (active),> 30 µM (inactive)
Cc1cn(-c2cc(NC(=O)c3ccc(C)c(Nc4nccc(-c5cccnc5)n4)c3)cc(C(F)(F)F)c2)cn1 [NILOTINIB],–,> 30 µM (inactive),–,> 30 µM (inactive),> 30 µM (inactive),> 30 µM (inactive),> 30 µM (inactive),> 30 µM (inactive),> 30 µM (inactive),> 30 µM (inactive),–,–
Cc1cc2c(F)c(Oc3ncnn4cc(OC[C@@H](C)OC(=O)[C@H](C)N)c(C)c34)ccc2[nH]1 [BRIVANIB ALANINATE],> 30 µM (inactive),> 30 µM (inactive),> 30 µM (inactive),> 30 µM (inactive),> 30 µM (inactive),> 30 µM (inactive),> 30 µM (inactive),> 30 µM (inactive),–,> 30 µM (inactive),> 30 µM (inactive),> 30 µM (inactive)
Cc1nc(N)sc1-c1ccnc(Nc2ccc(N3CCOCC3)cc2)n1 [CYC-116],–,> 30 µM (inactive),> 30 µM (inactive),> 30 µM (inactive),> 30 µM (inactive),> 30 µM (inactive),> 30 µM (inactive),> 30 µM (inactive),> 30 µM (inactive),> 30 µM (inactive),–,–
